Results: article PMC9029538, “Dosing Colistimethate Every 8 h Results in Higher Plasma Concentrations of Active Colistin Than Every 12-Hourly Dosing without Increase in Nephrotoxicity: A Phase 1 Pharmacokinetics Trial in Healthy Adult Volunteers” (Antibiotics, 2022)

Key:
[1] = Treatment-emergent adverse events, safety population; assay type: in vivo, healthy adult volunteers; settings: for Ataxia / Blood creatinine increased / Dizziness / Glycosuria / Proteinuria / Red blood cells urine / Renal and urinary disorders / White blood cells urine positive / Blood calcium decreased / Headache / Investigations / Lymphocyte count decreased / Nervous system disorders / Number of Subjects with at Least One Adverse Event / Paresthesia / Prothrombin time prolonged / Respiratory, thoracic and mediastinal disorders / Cough: TEAE, subjects n (%)
Protocol: (§1) Safety assessments for TEAEs were conducted, including physical examinations (including neurological evaluations), […], vital signs, clinical laboratory tests, selected biomarkers for acute kidney injury (see section on kidney biomarkers), spirometry, and ECG measurements (see Supplementary Data S5 and S6 for clinical laboratory evaluations and schedule of events). If symptoms of ataxia were present, SARA (Scale for the Assessment and Rating of Ataxia, according to Schmitz-Hübsch et al.) assessment forms were completed to assess their severity.

[2] = Neurotoxicity (paresthesias, ataxia, SARA scores); assay type: in vivo, healthy adult volunteers; parameters: key to SARA score: Nose–finger—right / SARA score: Nose–finger—left: 0: no tremor; 0.5: tremor with an amplitude < 2 cm (unilateral); 1: tremor with an amplitude < 2 cm (bilateral); key to SARA score: Fast alternating hand movements—right / SARA score: Fast alternating hand movements—left / SARA score: Heel–shin slide—right / SARA score: Heel–shin slide—left / SARA score: Sitting / SARA score: Speech disturbance: 0: normal; key to SARA score: Finger chase—right / SARA score: Finger chase—left: 0: normal, no dysmetria; 0.5: dysmetria, under/overshooting target < 5 cm (unilateral); 1: dysmetria, under/overshooting target < 5 cm (bilateral); key to Cumulative SARA Score / SARA score: Gait / SARA score: Stance: normal, able to stand in tandem for >10s; able to stand with feet together without sway, but not in tandem for >10s; 2: able to stand with feet together for >10s, but only with sway; settings: for Cumulative SARA Score / SARA score: Fast alternating hand movements—left / SARA score: Fast alternating hand movements—right / SARA score: Finger chase—left / SARA score: Finger chase—right / SARA score: Gait / SARA score: Heel–shin slide—left / SARA score: Heel–shin slide—right / SARA score: Nose–finger—left / SARA score: Nose–finger—right / SARA score: Sitting / SARA score: Speech disturbance / SARA score: Stance: highest score for any visit
Protocol: as §1

## colistimethate sodium [CMS]
[1]; Cohort 1 (N = 9)
  Ataxia: 0
  Blood creatinine increased: 0
  Dizziness: 0
  Glycosuria: 0
  Proteinuria: 1 (11.1%)
  Red blood cells urine: 0
  Renal and urinary disorders: 1 (11.1%)
  White blood cells urine positive: 0
[1]; Cohort 2 (N = 10)
  Blood calcium decreased: 0
  Blood creatinine increased: 1 (10.0%)
  Glycosuria: 0
  Headache: 5 (50.0%)
  Investigations: 6 (60.0%)
  Lymphocyte count decreased: 1 (10.0%)
  Nervous system disorders: 10 (100.0%)
  Number of Subjects with at Least One Adverse Event: 10 (100.0%)
  Paresthesia: 10 (100.0%)
  Prothrombin time prolonged: 3 (30.0%)
  Red blood cells urine: 1 (10.0%)
  Respiratory, thoracic and mediastinal disorders: 3 (30.0%)
[1]; Cohort 3 (N = 12)
  Ataxia: 10 (83.3%)
  Blood calcium decreased: 4 (33.3%)
  Cough: 2 (16.7%)
  Dizziness: 2 (16.7%)
  Headache: 4 (33.3%)
  Investigations: 11 (91.7%)
  Lymphocyte count decreased: 1 (8.3%)
  Nervous system disorders: 11 (91.7%)
  Number of Subjects with at Least One Adverse Event: 11 (91.7%)
  Paresthesia: 9 (75.0%)
  Proteinuria: 7 (58.3%)
  Prothrombin time prolonged: 1 (8.3%)
  Renal and urinary disorders: 7 (58.3%)
  Respiratory, thoracic and mediastinal disorders: 2 (16.7%)
  White blood cells urine positive: 7 (58.3%)
[1]; Overall (N = 31)
  Ataxia: 17 (54.8%)
  Blood calcium decreased: 6 (19.4%)
  Blood creatinine increased: 5 (16.1%)
  Cough: 6 (19.4%)
  Dizziness: 5 (16.1%)
  Glycosuria: 5 (16.1%)
  Headache: 14 (45.2%)
  Investigations: 24 (77.4%)
  Lymphocyte count decreased: 4 (12.9%)
  Nervous system disorders: 27 (87.1%)
  Number of Subjects with at Least One Adverse Event: 30 (96.8%)
  Paresthesia: 24 (77.4%)
  Proteinuria: 10 (32.3%)
  Prothrombin time prolonged: 7 (22.6%)
  Red blood cells urine: 4 (12.9%)
  Renal and urinary disorders: 10 (32.3%)
  Respiratory, thoracic and mediastinal disorders: 8 (25.8%)
  White blood cells urine positive: 9 (29.0%)
[1]; Period 1 (IV), of all AEs
  AEs that occurred during Period 1: 138/287
[1]; overall
  total AEs reported: 287
[1]; resulted in discontinuation of the subject
  serious TEAE: one serious TEAE of acute kidney injury
[1]; whole study
  deaths: no deaths
[2]; Cohort 1
  ataxia reported: no ataxia
[2]; subject 20012078
  Cumulative SARA Score: 1
  SARA score: Fast alternating hand movements—left: 0
  SARA score: Fast alternating hand movements—right: 0
  SARA score: Finger chase—left: 0
  SARA score: Finger chase—right: 0
  SARA score: Gait: 1
  SARA score: Heel–shin slide—left: 0
  SARA score: Heel–shin slide—right: 0
  SARA score: Nose–finger—left: 0
  SARA score: Nose–finger—right: 0
  SARA score: Sitting: 0
  SARA score: Speech disturbance: 0
  SARA score: Stance: 0
[2]; subject 20012079
  SARA score: Fast alternating hand movements—left: 0
  SARA score: Fast alternating hand movements—right: 0
  SARA score: Finger chase—left: 0.5
  SARA score: Finger chase—right: 0
  SARA score: Gait: 2
  SARA score: Heel–shin slide—left: 0
  SARA score: Heel–shin slide—right: 0
  SARA score: Nose–finger—left: 0
  SARA score: Nose–finger—right: 0
  SARA score: Sitting: 0
  SARA score: Speech disturbance: 0
  SARA score: Stance: 2
[2]; subject 20012080
  SARA score: Fast alternating hand movements—left: 0
  SARA score: Fast alternating hand movements—right: 0
  SARA score: Finger chase—left: 0
  SARA score: Finger chase—right: 0
  SARA score: Gait: 3
  SARA score: Heel–shin slide—left: 0
  SARA score: Heel–shin slide—right: 0
  SARA score: Nose–finger—left: 0.5
  SARA score: Nose–finger—right: 0.5
  SARA score: Sitting: 0
  SARA score: Speech disturbance: 0
  SARA score: Stance: 2
[2]; subject 20012081
  SARA score: Fast alternating hand movements—left: 0
  SARA score: Fast alternating hand movements—right: 0
  SARA score: Finger chase—left: 0
  SARA score: Finger chase—right: 0.5
  SARA score: Gait: 1
  SARA score: Heel–shin slide—left: 0
  SARA score: Heel–shin slide—right: 0
  SARA score: Nose–finger—left: 0
  SARA score: Nose–finger—right: 0
  SARA score: Sitting: 0
  SARA score: Speech disturbance: 0
  SARA score: Stance: 0
[2]; subject 20012082
  Cumulative SARA Score: 2
  SARA score: Fast alternating hand movements—left: 0
  SARA score: Fast alternating hand movements—right: 0
  SARA score: Finger chase—left: 0
  SARA score: Finger chase—right: 0
  SARA score: Gait: 1
  SARA score: Heel–shin slide—left: 0
  SARA score: Heel–shin slide—right: 0
  SARA score: Nose–finger—left: 0
  SARA score: Nose–finger—right: 0
  SARA score: Sitting: 0
  SARA score: Speech disturbance: 0
  SARA score: Stance: 1
